The source of these data is patent US10160762B2, “6-alkyl dihydropyrazolopyrimidinone compounds as PDE2 inhibitors” (Merck Sharp & Dohme Corp., priority 2015, dated 2018).

Each structure is given as a SMILES string. Read-outs that look alike come from different tables or passages of the source.

The assay deals with T1, human PDE2A1 (Homo sapiens, UniProt O00408).
T1 construct: GST; purchased BPS Bioscience (San Diego, Calif.) 60020; host or cells: insect cells
The assay can be described thus: IMAP FP PDE assay, human PDE2A1. The assay is classed as biochemical. The method, boiled down: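 FP (IMAP) read after 60 min room-temperature reaction of insect-cell GST-human PDE2A1 with 50 nM FAM-cAMP plus 1000 nM cGMP (pH 7.2 Tris, Mg2+, DTT). Compounds titrated 3-fold over ten points. Apparent Ki derived assuming KM of 10,000 nM; enzyme at 20% substrate turnover.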

Setting [1] is: Lab B, read-out: Human PDE2 Ki (nM) Lab B.
Where [2] appears, read: Lab A, read-out: Human PDE2 Ki (nM) Lab A.

T1 sequence (O00408 1-920 isoform O00408-2): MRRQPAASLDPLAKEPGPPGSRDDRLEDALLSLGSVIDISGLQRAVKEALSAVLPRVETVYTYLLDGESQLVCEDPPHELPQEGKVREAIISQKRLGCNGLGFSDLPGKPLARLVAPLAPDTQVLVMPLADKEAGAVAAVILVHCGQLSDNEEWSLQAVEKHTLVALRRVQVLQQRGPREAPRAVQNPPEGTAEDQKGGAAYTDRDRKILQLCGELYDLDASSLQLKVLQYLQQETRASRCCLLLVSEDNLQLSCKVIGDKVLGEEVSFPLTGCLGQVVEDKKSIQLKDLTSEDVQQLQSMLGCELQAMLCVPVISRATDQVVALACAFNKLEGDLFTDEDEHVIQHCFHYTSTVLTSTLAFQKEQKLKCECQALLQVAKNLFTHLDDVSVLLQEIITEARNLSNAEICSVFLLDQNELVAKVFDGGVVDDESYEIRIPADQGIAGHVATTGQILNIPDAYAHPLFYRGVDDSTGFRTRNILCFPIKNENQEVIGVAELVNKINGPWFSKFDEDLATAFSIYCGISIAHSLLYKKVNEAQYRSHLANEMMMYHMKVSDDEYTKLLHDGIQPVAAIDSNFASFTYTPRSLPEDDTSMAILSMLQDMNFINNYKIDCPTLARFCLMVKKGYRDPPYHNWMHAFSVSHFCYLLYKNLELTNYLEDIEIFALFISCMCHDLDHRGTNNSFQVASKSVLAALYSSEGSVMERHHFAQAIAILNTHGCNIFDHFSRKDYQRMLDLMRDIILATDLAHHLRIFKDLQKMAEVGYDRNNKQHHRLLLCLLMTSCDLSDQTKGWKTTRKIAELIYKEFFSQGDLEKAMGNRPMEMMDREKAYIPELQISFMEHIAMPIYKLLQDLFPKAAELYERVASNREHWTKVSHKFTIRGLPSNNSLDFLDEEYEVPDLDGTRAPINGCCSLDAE

As a reminder, the Ki is a dissociation constant, usually derived from enzyme kinetics or from competition with a known ligand. `Cc1nc2c(c(CO)nn2C(c2ccc(OC(F)(F)F)cc2)C2CC2)c(=O)[nH]1` (single isomer, unassigned) [Example 95, (S)- or (R)-1-(Cyclopropyl(4-(trifluoromethoxy)phenyl)methyl)-3-(hydroxymethyl)-6-methyl-1H-pyrazolo[3,4-d]pyrimidin-4(5H)-one]: the Ki under setting [1] was determined as 2 nM.

In the case of `Cc1nc2c(c(CO)nn2[C@@H](C)c2ccc(C(C)(C)C)cc2)c(=O)[nH]1` [Example 157, (S)-1-(1-(4-tert-Butylphenyl)ethyl)-3-(hydroxymethyl)-6-methyl-1H-pyrazolo[3,4-d]pyrimidin-4(5H)-one], the Ki under setting [1] was found to be 1.1 nM.

In the case of `Cc1nc2c(c(CF)nn2C(C)c2ccc(S(F)(F)(F)(F)F)cc2)c(=O)[nH]1` (single isomer, unassigned) [Example 200], under setting [1], the Ki was 2 nM.

With `Cc1ccc(C(C)n2nc(CF)c3c(=O)[nH]c(C)nc32)cc1` (stereo not shown) [Example 203, 3-(Fluoromethyl)-6-methyl-1-(1-p-tolylethyl)-1H-pyrazolo[3,4-d]pyrimidin-4(5H)-one], the Ki worked out at 8.3 nM under setting [2] and 17 nM under setting [1].

In the case of `Cc1nc2c(c(CF)nn2C(C)c2ccc(OC(F)(F)F)cc2)c(=O)[nH]1` (single isomer, unassigned) [Example 206, (R)- or (S)-3-(Fluoromethyl)-6-methyl-1-(1-(4-(trifluoro-methoxy-)phenyl)ethyl)-1H-pyrazolo[3,4-d]pyrimidin-4(5H)-one], under setting [1], the Ki worked out at 83 nM.

As to `Cc1nc2c(c(CO)nn2C(c2ccc(C(F)(F)F)c(F)c2)C(C)(C)C)c(=O)[nH]1` (single isomer, unassigned) [Example 129, (S)- or (R)-1-(1-(3-Fluoro-4-(trifluoromethyl)phenyl)-2,2-dimethylpropyl)-3-(hydroxyl-methyl)-6-methyl-1H-pyrazolo-[3,4-d]pyrimidin-4(5H)-one], the Ki under setting [1] came to 8.9 nM.

Turning to `Cc1nc2c(c(C(F)F)nn2C(c2ccc(OC(F)(F)F)c(F)c2)C2CC2)c(=O)[nH]1` (stereo not shown) [Example 193, 1-(Cyclopropyl(3-fluoro-4-(trifluoromethoxy)phenyl)methyl)-3-(difluoromethyl)-6-methyl-1H-pyrazolo[3,4-d]pyrimidin-4(5H)-one], the Ki under setting [1] came to 1.8 nM.

Turning to `Cc1ccc(C(C)n2nc(CO)c3c(=O)[nH]c(C)nc32)cc1` (stereo not shown) [Example 2, 3-(Hydroxymethyl)-6-methyl-1-(1-p-tolylethyl)-1H-pyrazolo[3,4-d]pyrimidin-4(5H)-one], the Ki under setting [2] amounted to 18 nM and the Ki under setting [1] is 28 nM.

On to `Cc1nc2c(c(CO)nn2C(C)c2ccc(C(F)(F)F)c(F)c2)c(=O)[nH]1` (single isomer, unassigned) [Example 13, (S)- or (R)-1-(1-(3-Fluoro-4-(trifluoromethyl)phenyl)ethyl)-3-(hydroxymethyl)-6-methyl-1H-pyrazolo[3,4-d]pyrimidin-4(5H)-one], for which the Ki under setting [1] worked out at 1.7 nM.

With `Cc1nn(C(C)c2ccc(C(F)(F)F)cc2)c2nc(Cc3cccc(O)c3)[nH]c(=O)c12` (stereo not shown) [Example 30, 6-(3-Hydroxybenzyl)-3-methyl-1-(1-(4-(trifluoromethyl)phenyl)ethyl)-1H-pyrazolo[3,4-d]pyrimidin-4(5H)-one], the Ki by setting is: under setting [2], 4.6 nM; under setting [1], 12 nM.

On to `COc1ccc(Cc2nc3c(c(C)nn3C(C)c3ccc(C(F)(F)F)cc3)c(=O)[nH]2)cc1` (stereo not shown) [Example 46, 6-(4-Methoxybenzyl)-3-methyl-1-{1-[4-(trifluoromethyl)phenyl]ethyl}-1,5-dihydro-4H-pyrazolo[3,4-d]pyrimidin-4-one], for which the Ki under setting [2] came to 8.6 nM.

For the molecule `Cc1nc2c(c(CF)nn2C(c2ccc(C(F)(F)F)cc2)C(F)(F)F)c(=O)[nH]1` (stereo not shown) [Example 201, 3-(Fluoromethyl)-6-methyl-1-(2,2,2-trifluoro-1-(4-(trifluoromethyl)phenyl)-ethyl)-1H-pyrazolo[3,4-d]pyrimidin-4(5H)-one], the Ki under setting [1] is 2.6 nM.

Take `COc1ccc(Cc2nc3c(c(CF)nn3C(C)c3ccc(C(F)(F)F)cc3)c(=O)[nH]2)cc1OC` (single isomer, unassigned) [Example 222, (R)- or (S)-6-(3,4-Dimethoxybenzyl)-3-(fluoromethyl)-1-(1-(4-(trifluoromethyl)phenyl)ethyl)-1,5-dihydro-4H-pyrazolo[3,4-d]pyrimidin-4-one]: the Ki was under 5.1 nM under setting [2] and 0.34 nM under setting [1].

`Cc1nc2c(c(C(C)O)nn2C(C)c2ccc(C(F)(F)F)cc2)c(=O)[nH]1` (stereo not shown) [Example 328, 3-(1-Hydroxyethyl)-6-methyl-1-{1-[4-(trifluoromethyl)phenyl]ethyl}-1,5-dihydro-4H-pyrazolo[3,4-d]pyrimidin-4-one]: the Ki was about 11 nM under setting [2] and 31 nM under setting [1].

In the case of `Cc1nc2c(c(CF)nn2C(C)c2ccc(C(F)(F)F)cc2)c(=O)[nH]1` (stereo not shown) [Example 204, 3-(Fluoromethyl)-6-methyl-1-{1-[4-(trifluoromethyl)phenyl]ethyl}-1,5-dihydro-4H-pyrazolo[3,4-d]pyrimidin-4-one], the Ki under setting [2] was found to be 2.7 nM.

For `Cc1nc2c(c(CO)nn2C(c2ccc(C(F)(F)F)cc2)C2CC2)c(=O)[nH]1` (stereo not shown) [Example 28, 1-(Cyclopropyl(4-(trifluoromethyl)phenyl)methyl)-3-(hydroxymethyl)-6-methyl-1H-pyrazolo[3,4-d]pyrimidin-4(5H)-one], the Ki under setting [1] came to 1.6 nM.

Regarding `Cc1nc2c(c(CF)nn2C(C)c2ccc(OC(F)(F)F)c(F)c2)c(=O)[nH]1` (single isomer, unassigned) [Example 217, (S)- or (R)-1-(1-(3-Fluoro-4-(trifluoromethoxy)phenyl)ethyl)-3-(fluoromethyl)-6-methyl-1H-pyrazolo[3,4-d]pyrimidin-4(5H)-one], under setting [1], the Ki turned out to be 0.7 nM.

As for `Cc1nc2c(c(C(O)C(F)(F)F)nn2C(C)c2ccc(C(F)(F)F)cc2)c(=O)[nH]1` (stereo not shown) [Example 327, 6-Methyl-3-(2,2,2-trifluoro-1-hydroxyethyl)-1-{1-[4-(trifluoromethyl)phenyl]ethyl}-1,5-dihydro-4H-pyrazolo[3,4-d]pyrimidin-4-one], the Ki under setting [2] worked out at 92 nM.

As for `COc1ccc(Cc2nc3c(c(CF)nn3C(C)c3ccc(C(F)(F)F)cc3)c(=O)[nH]2)cc1OC` (single isomer, unassigned) [Example 223, (S)- or (R)-6-(3,4-Dimethoxybenzyl)-3-(fluoromethyl)-1-(1-(4-(trifluoromethyl)phenyl)ethyl)-1,5-dihydro-4H-pyrazolo[3,4-d]pyrimidin-4-one], under setting [2], the Ki stood at 12 nM.

Consider `Cc1nc2c(c(CO)nn2C(C)c2ccc(OC(F)(F)F)c(F)c2)c(=O)[nH]1` (single isomer, unassigned) [Example 11, (S)- or (R)-1-(1-(3-Fluoro-4-(trifluoromethoxy)phenyl)ethyl)-3-(hydroxymethyl)-6-methyl-1H-pyrazolo[3,4-d]pyrimidin-4(5H)-one], for which the Ki under setting [1] was 1.9 nM.

As for `Cc1nc2c(c(CF)nn2C(C)c2ccc(C(C)(C)C)cc2)c(=O)[nH]1` (single isomer, unassigned) [Example 215, (S)- or (R)-1-(1-(4-tert-Butylphenyl)ethyl)-3-(fluoromethyl)-6-methyl-1H-pyrazolo[3,4-d]pyrimidin-4(5H)-one], the Ki under setting [1] is 0.48 nM.

Regarding `Cc1nc2c(c(CF)nn2C(C)c2ccc(C(F)(F)F)c(F)c2)c(=O)[nH]1` (stereo not shown) [Example 230, 1-(1-(3-Fluoro-4-(trifluoromethyl)phenyl)ethyl)-3-(fluoromethyl)-6-methyl-1H-pyrazolo[3,4-d]pyrimidin-4(5H)-one], the Ki under setting [2] came out at 1.5 nM and the Ki under setting [1] was 3.6 nM.
